Assays:
[1] = test system: RBL-2H3 cells; experiment: Inhibition of mast cell degranulation (β-hexosaminidase release); type: cell-based, rat; conditions: Rattus norvegicus, RBL-2H3 cells sensitized with anti-DNP IgE, triggered with DNP-HSA, 1 h preincubation
Source text: Mast cells are key effector cells involved in allergic and inflammatory diseases, and the Rat Basophilic Leukemia clone 2H3 (RBL-2H3) cell line is a commonly used model of allergen dependent immune modulator release (degranulation) in mast cells. On their surface, they express the high affinity receptor for IgE (FcεRI). Upon binding of antigen-specific IgE to the receptor, cells become sensitized to the IgE specific antigen (allergen). When IgE-sensitized cells then encounter multivalent antigen, the antigen clusters IgE-FcεRI complexes and initiates a signal transduction cascade that leads to degranulation, that is, the release of inflammatory mediators, such as cytokines, eicosanoids, histamine and enzymes. The assay can be used as a screening method to identify immune-modulating compounds, in particular compounds useful in the medical management of allergic and inflammatory diseases and asthma, β-hexosaminidase was previously shown to be released with the same kinetics as histamine (Schwartz et al., J Immunology; 123:1445-1450 (1979)), thus offering a simple means to monitor degranulation. The RBL-2H3 cell line has been successfully used to identify compounds with anti-allergic activity (Choo et al. Planta Med., 69:518-522 (2003)).
Cell Culture: RBL-2H3 cells obtained from the German Collection of Microorganisms and Cell Cultures (ACC312) (Braunschweig, Germany) were maintained in 70% Minimum Essential Medium with Earle's Salts, 20% RPMI 1640 Medium, 10% FBS and 2 mM l-glutamine in 95% air/5% CO2 at 37° C. and routinely checked for mycoplasma contamination. Cells were passaged every 3-4 days; after washing cells once with 35 ml PBS cells were incubated 8 min with 5 ml 0.05% Trypsin-EDTA solution at 37° C. Cells were removed from the incubator, 15 ml culture medium was added and cells were resuspended by repeated pipetting.
Cell seeding: cells were harvested with Trypsin-EDTA as described and 50-100 μl cell suspension seeded Into Costar CellBind 24 well cluster plates (no. 3337). Plates were kept for 30 min at RT under the sterile hood before being transferred to the incubator. Cells were used within one or two days after seeding.
For sensitization, cells for immediate use were sensitized 6-12 h after plating; cells to be used the following day were sensitized 26-38 h after plating. Culture plates were removed from the incubator and checked for cell growth and contamination. The medium was discarded and cells were sensitized with anti-DNP IgE (0.4 μg/ml) in 0.4 ml culture medium overnight. Following overnight sensitization, cells were washed with 0.8 ml pre-warmed TyB and 0.38 ml test compound or vehicle control (supplemented or not with 1% FBS) were added to duplicate wells. Samples were adjusted to contain 1% vehicle for test compounds dissolved in organic solvents. Cells were incubated for 1 h at 37° C. At the end of the incubation period, cells were routinely stimulated with 20 μl DNP-HSA (2 μg/ml; final concentration 0.1 μg/ml) diluted in TyB and cells were incubated for 15 min at 37° C. Alternatively, cells were stimulated with 20 μl […] (final concentration 0.25 μM) or 20 nM […] (final concentration 0.25 μM), both in the absence or presence of 20 nM PMA (final concentration).
Plates were removed from the incubator and immediately centrifuged at 4° C. for 5 min at 250×g and transferred to an ice bath. Aliquots of supernatants, 25 μl, were transferred to 96-well plates. Remaining supernatant was aspirated from control wells and cells were lysed in […] lysis buffer for 5 min at RT on an orbital shaker at 450 rpm under non-sterile conditions. After lysis, 25 μl aliquots of lysates were transferred to 96-well plates.
MUG substrate solution, 100 μl, were added to supernatant and lysate samples and plates were incubated 30 min at 37° C. The reaction was terminated by addition of 150 μl stop solution. Fluorescence was measured at 365 nm excitation and 440 nm emission wavelengths. […]

[2] = test system: BALB/c-mice; experiment: Local lymph node weight and cell count after TDI challenge; type: in vivo
Method: Directly after sacrifice, the ear draining lymph node (Ln. auricufaris) was prepared and excised. Organ weight was determined by means of an analytical balance (Kern, Balingen, Germany). Single cell suspensions were prepared by means of a glass potter (VWR, Darmstadt, Germany) and cells were counted with a hemocytometer (Neubauer, V W R, Germany).
One of the most undesirable side-effects of corticosteroid administration is immunosuppression, which leads to the inability to effectively address parasitic infection, wound healing and tumor growth. In the current study, the local lymph node reaction after TDI challenge (lymph node weight and cell number) was determined to assess the response of immune organs.

## CCCCCCCCCCCCCC[N+](C)(C)CCCS(=O)(=O)[O-] [Compound 1a, 3-(N,N-Dimethylmyristylammonio)-Propanesulfonate]
[1]
  IC50: 3.2 µM
[2]; systemic treatment at 100 mg/kg
  Local lymph node reaction (lymph node weight and cell number): did not have any impact
[2]; topical treatment at 2% or 6%
  Local lymph node reaction (lymph node weight and cell number): did not have any impact

From patent US10829506B2, “Amino- or ammonium-containing sulfonic acid, phosphonic acid and carboxylic acid derivatives and their medical use” (GRI Bio, Inc., priority 2011, dated 2020)
